Laboratory results: the supplement of paper PMC10307832

Key:
Assay in all cases: relative viability (nuclei count vs DMSO), 5 days (fraction); higher = more cells survive
201T = tested on: 201T
Summary of the method: (§1)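 Cells from lung cancer lines were seeded into 1536-well plates and, one day later, dosed by pin tool. Treatments were either a single drug or a fixed dose of an anchor drug with five library-drug doses (not always all listed) in √10 steps. After 5 days, nuclei were stained in a one-step fixation (final 0.05% Triton X-100, 1% formaldehyde, 1 ug/ml Hoechst) and counted on 4× images, and relative viability is the treated-to-vehicle nuclei ratio, as the median of duplicate plates.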

A-427 = tested on: A-427
Summary of the method: as §1

ABC-1 = tested on: ABC-1
Summary of the method: as §1

BEN = tested on: BEN
Summary of the method: as §1

CAL-12T = tested on: CAL-12T
Summary of the method: as §1

H3255 = tested on: H3255
Summary of the method: as §1

LC-2-ad = tested on: LC-2-ad
Summary of the method: as §1

LCLC-97TM1 = tested on: LCLC-97TM1
Summary of the method: as §1

NCI-H1650 = tested on: NCI-H1650
Summary of the method: as §1

NCI-H1651 = tested on: NCI-H1651
Summary of the method: as §1

NCI-H1792 = tested on: NCI-H1792
Summary of the method: as §1

NCI-H1915 = tested on: NCI-H1915
Summary of the method: as §1

NCI-H1944 = tested on: NCI-H1944
Summary of the method: as §1

NCI-H2023 = tested on: NCI-H2023
Summary of the method: as §1

NCI-H2087 = tested on: NCI-H2087
Summary of the method: as §1

NCI-H441 = tested on: NCI-H441
Summary of the method: as §1

NCI-H460 = tested on: NCI-H460
Summary of the method: as §1

NCI-H520 = tested on: NCI-H520
Summary of the method: as §1

NCI-H596 = tested on: NCI-H596
Summary of the method: as §1

NCI-H650 = tested on: NCI-H650
Summary of the method: as §1

NCI-H661 = tested on: NCI-H661
Summary of the method: as §1

NCI-H727 = tested on: NCI-H727
Summary of the method: as §1

PC-3 [JPC-3] = tested on: PC-3 [JPC-3]
Summary of the method: as §1

In the case of `C=C1C(=O)O[C@@H](CCCCCCCC)[C@@H]1C(=O)O` [C-75] + COc1cccc2cc(-c3nc([C@H]4CC[C@H](C(=O)O)CC4)n4ncnc(N)c34)[nH]c12 [OSI-027] (partner 0.5 µM), the relative viability (201T; first compound 0.08 µM) is reported as 0.734, the relative viability (201T; first compound 0.253 µM) is reported as 0.866 and the relative viability (201T; first compound 0.8 µM) is reported as 0.698. For the same molecule, the relative viability (201T; first compound 8 µM) was 0.734, the relative viability (A-427; first compound 0.08 µM) was 0.516 and the relative viability (A-427; first compound 0.253 µM) was 0.51. For the same molecule, the relative viability (A-427; first compound 0.8 µM) was 0.488, the relative viability (A-427; first compound 2.53 µM) was 0.439 and the relative viability (A-427; first compound 8 µM) was 0.39. The relative viability (ABC-1; first compound 0.08 µM) was 0.498, the relative viability (ABC-1; first compound 0.253 µM) was 0.587 and the relative viability (ABC-1; first compound 0.8 µM) was 0.479. It also gave a relative viability (ABC-1; first compound 2.53 µM) of 0.379, a relative viability (ABC-1; first compound 8 µM) of 0.35 and a relative viability (BEN; first compound 0.08 µM) of 0.347. The relative viability (BEN; first compound 0.253 µM) was 0.293, the relative viability (BEN; first compound 0.8 µM) was 0.32 and the relative viability (BEN; first compound 8 µM) was 0.288. For the same molecule, the relative viability (CAL-12T; first compound 0.08 µM) was 0.862, the relative viability (CAL-12T; first compound 0.253 µM) was 1.06 and the relative viability (CAL-12T; first compound 0.8 µM) was 0.697. It also gave a relative viability (CAL-12T; first compound 2.53 µM) of 0.592, a relative viability (CAL-12T; first compound 8 µM) of 0.63 and a relative viability (H3255; first compound 0.08 µM) of 0.589. For the same molecule, the relative viability (H3255; first compound 0.253 µM) was 0.7, the relative viability (H3255; first compound 0.8 µM) was 0.481 and the relative viability (H3255; first compound 2.53 µM) was 0.562. It also gave a relative viability (H3255; first compound 8 µM) of 0.633, a relative viability (LC-2-ad; first compound 0.08 µM) of 0.745 and a relative viability (LC-2-ad; first compound 0.253 µM) of 0.799. It also gave a relative viability (LC-2-ad; first compound 0.8 µM) of 0.747, a relative viability (LC-2-ad; first compound 2.53 µM) of 0.646 and a relative viability (LC-2-ad; first compound 8 µM) of 0.686. It also gave a relative viability (LCLC-97TM1; first compound 0.08 µM) of 0.554, a relative viability (LCLC-97TM1; first compound 0.253 µM) of 0.636 and a relative viability (LCLC-97TM1; first compound 0.8 µM) of 0.543. The relative viability (LCLC-97TM1; first compound 2.53 µM) was 0.192, the relative viability (LCLC-97TM1; first compound 8 µM) was 0.479 and the relative viability (NCI-H1650; first compound 0.08 µM) was 0.743. For the same molecule, the relative viability (NCI-H1650; first compound 0.253 µM) was 0.856, the relative viability (NCI-H1650; first compound 2.53 µM) was 0.442 and the relative viability (NCI-H1650; first compound 8 µM) was 0.851. The relative viability (NCI-H1651; first compound 0.08 µM) was 0.712, the relative viability (NCI-H1651; first compound 0.253 µM) was 0.838 and the relative viability (NCI-H1651; first compound 0.8 µM) was 0.768. It also gave a relative viability (NCI-H1651; first compound 2.53 µM) of 0.635, a relative viability (NCI-H1651; first compound 8 µM) of 0.815 and a relative viability (NCI-H1792; first compound 0.08 µM) of 0.694. For the same molecule, the relative viability (NCI-H1792; first compound 0.253 µM) was 0.695, the relative viability (NCI-H1792; first compound 0.8 µM) was 0.636 and the relative viability (NCI-H1792; first compound 2.53 µM) was 0.419. It also gave a relative viability (NCI-H1792; first compound 8 µM) of 0.712, a relative viability (NCI-H1915; first compound 0.08 µM) of 0.656 and a relative viability (NCI-H1915; first compound 0.253 µM) of 0.588. The relative viability (NCI-H1915; first compound 0.8 µM) was 0.61, the relative viability (NCI-H1915; first compound 2.53 µM) was 0.382 and the relative viability (NCI-H1915; first compound 8 µM) was 0.588. It also gave a relative viability (NCI-H1944; first compound 0.08 µM) of 0.441, a relative viability (NCI-H1944; first compound 0.253 µM) of 0.426 and a relative viability (NCI-H1944; first compound 0.8 µM) of 0.392. For the same molecule, the relative viability (NCI-H1944; first compound 8 µM) was 0.448, the relative viability (NCI-H2023; first compound 0.08 µM) was 0.455 and the relative viability (NCI-H2023; first compound 0.253 µM) was 0.558. For the same molecule, the relative viability (NCI-H2023; first compound 0.8 µM) was 0.34, the relative viability (NCI-H2023; first compound 2.53 µM) was 0.415 and the relative viability (NCI-H2023; first compound 8 µM) was 0.32. The relative viability (NCI-H2087; first compound 0.08 µM) was 0.609, the relative viability (NCI-H2087; first compound 0.253 µM) was 0.807 and the relative viability (NCI-H2087; first compound 0.8 µM) was 0.54. For the same molecule, the relative viability (NCI-H2087; first compound 2.53 µM) was 0.377, the relative viability (NCI-H2087; first compound 8 µM) was 0.528 and the relative viability (NCI-H441; first compound 0.08 µM) was 0.512. For the same molecule, the relative viability (NCI-H441; first compound 0.253 µM) was 0.713, the relative viability (NCI-H441; first compound 0.8 µM) was 0.678 and the relative viability (NCI-H441; first compound 2.53 µM) was 0.36. For the same molecule, the relative viability (NCI-H441; first compound 8 µM) was 0.548, the relative viability (NCI-H460; first compound 0.08 µM) was 0.664 and the relative viability (NCI-H460; first compound 0.253 µM) was 0.751. It also gave a relative viability (NCI-H460; first compound 0.8 µM) of 0.59, a relative viability (NCI-H460; first compound 8 µM) of 0.527 and a relative viability (NCI-H520; first compound 0.08 µM) of 0.237. It also gave a relative viability (NCI-H520; first compound 0.253 µM) of 0.338, a relative viability (NCI-H520; first compound 0.8 µM) of 0.242 and a relative viability (NCI-H520; first compound 2.53 µM) of 0.221. It also gave a relative viability (NCI-H520; first compound 8 µM) of 0.294, a relative viability (NCI-H596; first compound 0.08 µM) of 0.887 and a relative viability (NCI-H596; first compound 0.253 µM) of 0.798. The relative viability (NCI-H596; first compound 0.8 µM) was 0.72, the relative viability (NCI-H596; first compound 2.53 µM) was 0.622 and the relative viability (NCI-H596; first compound 8 µM) was 0.678. It also gave a relative viability (NCI-H650; first compound 0.08 µM) of 0.611, a relative viability (NCI-H650; first compound 0.253 µM) of 0.401 and a relative viability (NCI-H650; first compound 0.8 µM) of 0.494. It also gave a relative viability (NCI-H650; first compound 2.53 µM) of 0.448, a relative viability (NCI-H650; first compound 8 µM) of 0.524 and a relative viability (NCI-H661; first compound 0.08 µM) of 0.697. The relative viability (NCI-H661; first compound 0.253 µM) was 0.71, the relative viability (NCI-H661; first compound 0.8 µM) was 0.72 and the relative viability (NCI-H661; first compound 2.53 µM) was 0.635. The relative viability (NCI-H661; first compound 8 µM) was 0.736, the relative viability (NCI-H727; first compound 0.08 µM) was 0.893 and the relative viability (NCI-H727; first compound 0.253 µM) was 0.894. It also gave a relative viability (NCI-H727; first compound 0.8 µM) of 0.575, a relative viability (NCI-H727; first compound 8 µM) of 0.98 and a relative viability (PC-3 [JPC-3]; first compound 0.08 µM) of 0.772. It also gave a relative viability (PC-3 [JPC-3]; first compound 0.253 µM) of 0.806, a relative viability (PC-3 [JPC-3]; first compound 0.8 µM) of 0.736 and a relative viability (PC-3 [JPC-3]; first compound 2.53 µM) of 0.668. The relative viability (PC-3 [JPC-3]; first compound 8 µM) was 0.749.
